# Patent US20110059947A1, “ALPHA 7 NICOTINIC AGONISTS AND ANTIPSYCHOTICS” (Targacept, Inc., priority 2008, published 2011)
# “And” between values parts separate entries of the source, which are not always exact repeats. Equal entries are not always repeated.
# Key:
# rat ganglion receptors = experiment: Ganglion function (Ca++ flux), PC-12 Shooter cells; type: cell-based; details: rat PC-12 Shooter cells, % of nicotine's Emax
# 5HT3 receptors [1] = target: T1, 5HT3 receptors (Homo sapiens, UniProt P46098); experiment: 5HT3 receptor radioligand binding, human receptor; details: 10 μM
# T1 sequence (P46098 24-478): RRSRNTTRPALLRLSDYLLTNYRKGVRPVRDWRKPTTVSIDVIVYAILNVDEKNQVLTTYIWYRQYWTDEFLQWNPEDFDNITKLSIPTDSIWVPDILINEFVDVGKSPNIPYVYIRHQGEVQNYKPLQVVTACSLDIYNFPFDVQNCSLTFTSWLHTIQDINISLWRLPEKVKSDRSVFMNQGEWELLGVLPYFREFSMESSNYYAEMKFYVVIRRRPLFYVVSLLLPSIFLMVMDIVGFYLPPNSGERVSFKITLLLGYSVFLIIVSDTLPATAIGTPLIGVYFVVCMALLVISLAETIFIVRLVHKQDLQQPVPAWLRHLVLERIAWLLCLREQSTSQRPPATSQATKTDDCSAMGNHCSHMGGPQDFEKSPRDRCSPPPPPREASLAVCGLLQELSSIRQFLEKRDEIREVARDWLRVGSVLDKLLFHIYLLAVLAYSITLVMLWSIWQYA
# th(tk-)/th(tk-) mice = experiment: Prepulse inhibition (PPI) and acoustic startle in th(tk-)/th(tk-) and control mice; type: in vivo
# human muscle receptors = target: T2, human muscle receptors (Homo sapiens, UniProt P02708+P07510+Q07001); experiment: Muscle function (Ca++ flux), TE-671 cells; type: cell-based; details: human TE-671 cells, % of nicotine's Emax
# T2 construct: expressed in appropriate rat and human cell lines; endogenous in cells
# opioid receptor = details: read-out: Ki opioid site; dose-response assessment
# 5HT3 receptors [2] = target: T3, 5HT3 receptors (Mus musculus, UniProt P23979); experiment: 5HT3 receptor radioligand binding, mouse receptor; details: 10 μM
# T3 sequence (P23979 24-489): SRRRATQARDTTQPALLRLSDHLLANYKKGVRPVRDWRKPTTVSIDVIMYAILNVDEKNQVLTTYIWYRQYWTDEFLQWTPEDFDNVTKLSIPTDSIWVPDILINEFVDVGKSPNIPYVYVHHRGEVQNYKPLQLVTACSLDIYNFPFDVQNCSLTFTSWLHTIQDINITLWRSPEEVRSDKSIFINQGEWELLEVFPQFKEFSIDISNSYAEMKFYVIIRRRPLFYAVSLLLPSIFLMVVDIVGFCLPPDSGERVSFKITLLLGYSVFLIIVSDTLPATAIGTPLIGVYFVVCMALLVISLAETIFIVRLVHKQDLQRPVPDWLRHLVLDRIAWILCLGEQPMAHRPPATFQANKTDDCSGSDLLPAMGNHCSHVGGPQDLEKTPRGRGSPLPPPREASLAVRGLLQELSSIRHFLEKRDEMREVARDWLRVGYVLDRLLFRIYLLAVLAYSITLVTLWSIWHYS
# human ganglion receptors = experiment: Ganglion function (Ca++ flux), SH-SY5Y cells; type: cell-based; details: % of nicotine's Emax
# human α4β2 sub-type = target: T4, human α4β2 sub-type (Homo sapiens, UniProt P17787+P43681); experiment: Functional activation in Xenopus oocytes (electrophysiology); type: cell-based
# T4 construct: expressed in transfected cells; host or cells: Xenopus oocytes
# rats = experiment: Novel object recognition (NOR) in rats; type: in vivo, rat
# Excerpt: The object recognition model is based on a rodent's spontaneous tendency to explore novel aspects of their environment and this exploratory activity can be an index for memory function (Ennaceur and Delacour, 1988). The NOR test measures the capacity to recognize an object presented on two occasions, some time apart. The test arena consisted of a 17.5×17.5″ clear Plexiglas™ with walls 12″ in height. The arena was enclosed in an opaque, sound-attenuating chamber and the doors (opening to the front side) remained open. […] On the first two days of this sub-acute dosing paradigm, administrations were followed 30 minutes later by an exploratory (habituation) trial (6 minutes) on Day 1 (no objects) and object recognition acquisition trial (3 minutes) on Day 2 (2 of the same objects). On the third day the final OR trial, or recall trial (3 minutes; one familiar, one novel object) was started at either 30 min, 2 h, 6 h, 18 h or 24 h after compound administration. For the recall trial, a video camera was positioned approximately 36″ from the unshielded side of the arena for videotaping of the animals' behaviors. These behaviors were subsequently hand-scored by a blinded observer assessing the time spent exploring a novel (object B) versus a familiar (object A) object during this recall exposure trial. Absolute exploration time for each object was recorded, and a % recognition index was calculated as follows: % RI=[(time investigating novel object)/(total time investigating both novel+familiar objects)] […] Where significant overall effects were found, post-hoc analyses were performed. P<0.05 was considered significant.
# human α4β2 receptors = target: T5, human α4β2 receptors (Homo sapiens, UniProt P17787+P43681); experiment: [3H]-(S)-nicotine competition binding in SH-EP1 cellular membranes; details: SH-EP1 cells
# T5 construct: expressed in transfected cells; host or cells: SH-EP1
# sigma site 2 = target: T6, sigma site 2 (Homo sapiens, UniProt Q5BJF2); experiment: Sigma site 2 binding (Novascreen)
# T6 construct: Novascreen
# 5HT3 receptors [3] = target: T1, 5HT3 receptors; experiment: Functional activation at the human 5HT3 receptor; type: cell-based; details: read-out: maximal response, functional activation of human 5HT3 receptor
# Sprague-Dawley rats = experiment: Apomorphine-induced impairment of pre-pulse inhibition; type: in vivo, rat; details: Compound A 0.3 mg/kg s.c., apomorphine 1.0 mg/kg s.c., p<0.001
# [4] = tested on: non-nicotinic receptor classes; experiment: Broad receptor selectivity battery (Novascreen); details: criterion: inhibition of receptor-selective ligand binding >50% at 10 μM
smiles,measurement,setting,value
"O=C(N[C@@H]1C2CCN(CC2)[C@H]1Cc1cccnc1)c1cc2ccccc2o1 [Compound A, (2S,3R)—N-(2-((3-pyridinyl)methyl)-1-azabicyclo[2.2.2]oct-3-yl)benzofuran-2-carboxamide]",Ganglion Function (Ca++ flux) % nicotine @ 10 uM,rat ganglion receptors; 10 uM,11 % nicotine and 11 ± 6 % nicotine
same,Ganglion Function (Ca++ flux) % nicotine @ 100 uM,rat ganglion receptors; 100 uM,20 % nicotine and 20 ± 8 % nicotine
same,"inhibition of radioligand binding at 5HT3, human receptor",5HT3 receptors [1],25 % inhibition
same,PPI or startle,th(tk-)/th(tk-) mice; Compound A 0.1 mg/kg given individually,little effect
same,PPI,"th(tk-)/th(tk-) mice; control (wild type) mice, Compound A",no effect on control
same,startle response,"th(tk-)/th(tk-) mice; th(tk-)/th(tk-) mice, Compound A",normalizes startle response
same,deficits in PPI,"th(tk-)/th(tk-) mice; th(tk-)/th(tk-) mice, Compound A (0.1 and 0.3 mg/kg analyzed)",reverse deficits in PPI
same,"PPI, main effect","th(tk-)/th(tk-) mice; transgenic th(tk-)/th(tk-) mice, Compound A 0.1 mg/kg alone",no significant main effect
same,Muscle Function (Ca++ flux) % nicotine @ 10 uM,human muscle receptors; 10 uM,5 % nicotine and 5 ± 2 % nicotine
same,Muscle Function (Ca++ flux) % nicotine @ 100 uM,human muscle receptors; 100 uM,12 % nicotine and 12 ± 7 % nicotine
same,Ki,opioid receptor,13 µM
same,"inhibition of radioligand binding at 5HT3, mouse receptor",5HT3 receptors [2],59 % inhibition
same,Ganglion Function (Ca++ flux) % nicotine @ 10 uM,human ganglion receptors; 10 uM,6 % nicotine and 6 ± 2 % nicotine
same,Ganglion Function (Ca++ flux) % nicotine @ 100 uM,human ganglion receptors; 100 uM,11 % nicotine and 11 ± 1 % nicotine
same,activation of human α4β2,human α4β2 sub-type,no detectable activation
same,decreases in subsequent control responses to ACh (α4β2),human α4β2 sub-type,no significant decreases
same,time investigating novel versus familiar object,"rats; rats, 0.3 mg/kg, 30 min, 2 h, 6 h and 18 h after final sub-acute (q.d. x3 days) administration",significantly more time investigating the novel object than the familiar object
same,time spent investigating the novel object,"rats; rats, 0.3, 1 and 10 mg/kg p.o., 30 minutes after 3rd q.d. administration",significantly increased the time spent investigating the novel object
same,duration of working memory facilitation after third sub-acute daily administration,"rats; young rats, 0.3 mg/kg",up to 18 hours
same,Ki,human α4β2 receptors,2.8 µM
same,"inhibition of ligand binding, sigma site 2",sigma site 2; 10 μM,79 % inhibition
same,Ki,sigma site 2; dose-response assessment,13 µM
same,Emax at 100 µM,5HT3 receptors [3],15%
same,PPI deficits induced by apomorphine,Sprague-Dawley rats,significantly reversed PPI deficits
same,interactions with other non-nicotinic receptor classes,[4],minimal interactions
